# According to US4014909A, “Esters of 21-thiol steroids” (priority 1974, dated 1977):
# Read-outs that look alike come from different tables or passages of the source.
# Key:
# granuloma = assay: Anti-proliferative (anti-granulomatous) activity, cotton pellet granuloma; format: in vivo, rat (Wistar, male); conditions: rat, cotton pellet impregnated with product, 6 days
# Description: The experimental local anti-inflammatory activity of the compounds presented was estimated in rats by their anti-proliferative (anti-granulomatous) action, and for certain of these, by their anti-arthritic activity and their antiexudative activity.
# The anti-proliferative (anti-granulomatous) activity has been brought into evidence by means of a test, the principle of which is as follows.
# The introduction of a foreign body into an organism produces a set of inflammatory reactions which results, in the chromic stage, in the formation of a defence granuloma around the foreign body. The proliferation of this granuloma is eliminated or attenuated by anti-inflammatory agents.
# The technique employed is very similar to that described by Winter and Porter (J. Am. Pharm. Ass. 46/9. 515) 1957 with rats.
# Homogeneous groups of 6 male adult rats of the Wistar Strain were used, distributed at random and having weights comprised between 180 and 200 grams.
# The implants or pellets were prepared from rolls of dental cotton; the weight of the pellets was between 35 and 40 mg.
# The products to be tested were dissolved in dimethylsulphoxide (DMSO) and the solutions obtained, deposited on the pellets at a volume of 0.2 ml per pellet. The DMSO was then evaporated under high vacuum at ambient temperature, the complete elimination of the solvent being checked by weighing the pellets. "Reference" pellets, soaked with the solvent alone, were treated in the same manner.
# Immediately before their introduction, the pellets were soaked with an antibiotic solution (0.1 ml. of a solution of penicillin G and streptomycin containing 200,000 of penicillin G and 0.1 gram of streptomycin sulphate per cc.).
# Each animal received two pellets in the sub-cutaneous dorsal tissue on each side of the spinal column, at the costo-lumbar angle, under light anaesthesia with ether. The day of the operation and for three days after, the animals received by sub-cutaneous injection, 0.1 ml. of the antibiotic solution in the caudal region.
# Six days after the introduction, the animals were killed by inhalation of chloroform and the granulomae were extracted and weighed, (fresh weight), and then the initial weights of the cotton pellets were subtracted from the total weight.
# Certain non-sulphured steroids causing a large increase in protein catabolism which can influence the formation of the granuloma independently of their anti-inflammatory action, the weights of the granulomae were expressed as a percentage of the body weight (technique proposed by G. Dipasquale and A. Meli: J. Pharm. Pharmacol. (1965), 17,367-382) and the anti-proliferative effect of the various compounds as a percentage inhibition with respect to the reference granulomae. The DE50 were calculated by transferring the results on to semi-logarithmic paper.
# thymus = format: in vivo, rat (Wistar, young male)
# Protocol: The thymolytic effects have been examined by means of a test, the principle of which is as follows:
# The repeated administration of a gluco-corticoid having a systemic activity causes an involution of the defence system of the organism, of which two organs belong to the reticulo-endothelial system, the spleen and the thymus, this latter being the most sensitive to this action, especially with young animals. The thymic involution is estimated by weighing.
# The various products were injected daily by the oral or the sub-cutaneous route for four days, to young male rats of Wistar-strain, the initial weight of which was between 45 and 55 grams, distributed at random by groups of ten.
# The products under study were administered at a volume of 0.2 ml. per animal for both methods, in suspension in:
# Carboxy-methyl-cellulose at 5 % for sub-cutaneous injection;
# Gum arabic at 5 % for the oral route.
# The animals of the reference groups received the same volume of the corresponding vehicle.
# Ninety-six hours after the first administration, the animals were killed, the thymus glands being taken and weighed immediately.
# (§1) For each animal, the weight of the thymus has been brought to 100 grams of body weight. The thymolytic activity of the products under study was then expressed as a percentage of regression of the thymus with respect to the animals of the reference group and the ED50 of each product tested was estimated by transferring the percentage inhibition obtained for each dose on semi-logarithmic paper.
# granuloma / thymus = assay: Ratio of the local anti-inflammatory activity to the thymolytic activity; format: in vivo, rat (Wistar); conditions: for ED50 anti-proliferative activity / ED50 thymolytic activity (sub-cutaneous route): thymolytic activity determined by sub-cutaneous route; for ED50 anti-proliferative activity / ED50 thymolytic activity (oral route): thymolytic activity determined by the oral route
# Protocol: The DE50 were calculated by transferring the results on to semi-logarithmic paper.
# as §1
# The ratio is indicated in Tables VII, VIII and IX which follow: […]
# [1] = cited from earlier work; for Adreno-corticoid activity / Diuretic activity: U.S. Pat. No. 2,814,632
# [2] = oral, total dose administered during four days per rat of about 50 g
# [3] = sub-cutaneous, total dose administered during four days per rat of about 50 g
Compound,ED50 anti-proliferative activity (granuloma),"ED50 thymolytic activity, sub-cutaneous route (thymus; rat, in vivo, 5760 min) [mg]",ED50 anti-proliferative activity / ED50 thymolytic activity (sub-cutaneous route) (granuloma / thymus),"ED50 thymolytic activity, oral route (thymus; rat, in vivo, po, 5760 min) [mg]",ED50 anti-proliferative activity / ED50 thymolytic activity (oral route) (granuloma / thymus),further results
"C[C@@H]1C[C@H]2[C@@H]3CCC4=CC(=O)C=C[C@]4(C)[C@@]3(F)[C@@H](O)C[C@]2(C)[C@@]1(O)C(=O)CSC(=O)c1ccc(F)cc1 [JO 1013, Dihydroxy-11β, 17α thiol-21 dioxo-3,20 fluoro-9α methyl-16α pregnadiene-1,4-21 p. fluoro benzoate]",0.5 mg/pellet,0.8,0.625,–,–,–
"C[C@@H]1C[C@H]2[C@@H]3CCC4=CC(=O)C=C[C@]4(C)[C@@]3(F)[C@@H](O)C[C@]2(C)[C@@]1(O)C(=O)CSC(=O)C(C)(C)C [JO 1008, Dihydroxy-11β, 17α thiol-21 dioxo-3,20 fluoro-9α methyl-16α pregnadiene-1,4-21-pivalate]",1 mg/pellet,0.8,1.25,–,–,–
"C[C@]12C=CC(=O)C=C1CC[C@@H]1[C@@H]2[C@@H](O)C[C@@]2(C)[C@H]1CC[C@]2(O)C(=O)CSC(=O)c1ccc(F)cc1 [JO 1014, Thiol-21 dioxo-3,20 pregnadiene-1,4-21 p. fluorobenzoate]",0.5 mg/pellet,> 40,0.0125,40,"0,012",–
"C[C@@H]1C[C@H]2[C@@H]3CCC4=CC(=O)C=C[C@]4(C)[C@@]3(F)[C@@H](O)C[C@]2(C)[C@@]1(O)C(=O)CO [Dexamethasone (base), Dexamethasone, reference compound]",1 mg/pellet,10.02,50,0.013,80,–
"CCCCCCC(=O)SCC(=O)[C@@]1(O)[C@H](C)C[C@H]2[C@@H]3CCC4=CC(=O)C=C[C@]4(C)[C@@]3(F)[C@@H](O)C[C@@]21C [JO 1010, Dihydroxy611β, 17α thiol-21 dioxo-3,20 fluoro-9α methyl-16α pregnadiene-1,4-21 heptanoate]","0,5 mg/pellet",0.4,1.25,–,–,–
CC(=O)SCC(=O)[C@@]1(O)CC[C@H]2[C@@H]3CCC4=CC(=O)CC[C@]4(C)[C@H]3[C@@H](O)C[C@@]21C [21-thio-acetate of hydrocortisone],–,–,–,–,–,"Biological activity ([1]; J. Org. Chem. 26,1233, 1961): free of all interesting biological activity"
CCC(=O)SCC(=O)[C@@]1(O)CC[C@H]2[C@@H]3CCC4=CC(=O)C=C[C@]4(C)[C@H]3[C@@H](O)C[C@@]21C [21-thio propionate of prednisolone],–,–,–,–,–,Adreno-corticoid activity [1]: possessing an adreno-corticoid activity; Diuretic activity [1]: considerable diuretic activity
"CC(C)(C)C(=O)SCC(=O)[C@@]1(O)CC[C@H]2[C@@H]3CCC4=CC(=O)C=C[C@]4(C)[C@H]3[C@@H](O)C[C@@]21C [JO 1007, Dihydroxy-11β, 17αThiol 21 Dioxo-3,20 Pregnadiene-1,4 -21 Pivalate]","0,44 mg/pellet",30.4,0.014,9.6,0.046,–
"CCCCCCC(=O)SCC(=O)[C@@]1(O)CC[C@H]2[C@@H]3CCC4=CC(=O)C=C[C@]4(C)[C@H]3[C@@H](O)C[C@@]21C [JO 1009, Dihydroxy-11β, 17αthiol-21 dioxo-3,20 pregnadiene-1,4-21 heptanoate]",0.5 mg/pellet,8,0.0625,–,–,–
"C[C@]12CCC(=O)C=C1CC[C@@H]1[C@@H]2[C@@H](O)C[C@@]2(C)[C@H]1CC[C@]2(O)C(=O)CO [Hydrocortisone (base), Hydrocortisone, reference compound]",10 mg/pellet,1.8,5.5,4,2.5,–
CC(=O)SCC(=O)[C@@]1(O)[C@H](C)C[C@H]2[C@@H]3CCC4=CC(=O)C=C[C@]4(C)[C@@]3(F)[C@@H](O)C[C@@]21C [21-thio-acetate of dexamethasone],–,–,–,–,–,Anti-inflammatory action ([1]; French Pat. No. 1187 M): anti-inflammatory product with a local action and a systemic action
"C[C@]12CCC(=O)C=C1CC[C@@H]1[C@@H]2[C@@H](O)C[C@@]2(C)[C@H]1CC[C@]2(O)C(=O)CSC(=O)c1ccc(F)cc1 [JO 1026, Dihydroxy-11β, 17α thiol-21 dioxo-3,20 pregnene-4-21 p. fluoro-benzoate]",0.4 mg/pellet,> 40,< 0.01,> 40,< 0.01,–
"CC(=O)OCC(=O)[C@@]1(O)CC[C@H]2[C@@H]3CCC4=CC(=O)C=C[C@]4(C)[C@H]3[C@@H](O)C[C@@]21C [Prednisolone (acetate), reference compound]",2 mg/pellet,–,–,–,–,"ED50 thymolytic activity, oral route (thymus; [2]): 0.64 mg; ED50 thymolytic activity, sub-cutaneous route (thymus; [3]): 0.23 mg"
"CC(=O)OCC(=O)[C@@]1(O)[C@H](C)C[C@H]2[C@@H]3CCC4=CC(=O)C=C[C@]4(C)[C@@]3(F)[C@@H](O)C[C@@]21C [Dexamethasone (acetate), Dexamethasone acetate, reference compound]",0.4 mg/pellet,0.009,40,0.01,40,–
CC(=O)SCC(=O)[C@@]1(O)CC[C@H]2[C@@H]3CCC4=CC(=O)C=C[C@]4(C)[C@H]3[C@@H](O)C[C@@]21C [21-thio-acetate of prednisolone],–,–,–,–,–,Adreno-corticoid activity [1]: possessing an adreno-corticoid activity; Diuretic activity [1]: considerable diuretic activity
"C[C@]12C=CC(=O)C=C1CC[C@@H]1[C@@H]2[C@@H](O)C[C@@]2(C)[C@H]1CC[C@]2(O)C(=O)CO [Prednisolone (base), Prednisolone, reference compound]",4 mg/pellet,–,5,–,12.5,"ED50 thymolytic activity, oral route (thymus; [2]): 0.34 mg; ED50 thymolytic activity, sub-cutaneous route (thymus; [3]): 0.84 mg"
